Measured values as given in US6156700A, “3-(1,2-Benzisothiazol- and isoxazol-5-yl)-2,4(1H,3H)-pyrimidinedione or thione and 3-(1,2-benzisothiazol- and isoxazol-5-yl)-4(3H)-pyrimidinone or thione herbicidal agents” (American Cyanmid Company, priority 1998, dated 2000).

Columns and labels:
Corn, Field, Zea mays [1] = experiment: Preemergence herbicidal evaluation, ZEAMX; assay type: in vivo, L.; settings: 0.2500 kg/ha
Summary of the method: (§1)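 Values are 0–9 visual ratings of stand, vigor, malformation, size, chlorosis and overall appearance relative to a control, scored 4 to 5 weeks after treatment. Test compound in aqueous acetone was sprayed onto soil right after seeding, at rates equivalent to about 0.0156–0.500 kg per hectare.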

ORYSAT Rice, Tebonnet [2] = experiment: Tolerance of transplanted rice to post-transplant application (Table III); assay type: in vivo, Oryza sativa; design: scale not given here; settings: crop tolerance
Procedure: The tolerance of transplanted rice to post-transplanted herbicide applications is determined as follows: two ten-day-old rice seedlings (cv. Tebonnet) are transplanted into silt loam soil in 32 oz. plastic containers with a diameter of 10.5 cm and no drainage holes. After transplanting, the containers are flooded and the water level is maintained at 1.5 to 3 cm above the soil surface. Three days after transplanting, the flooded soil surface of the containers is treated with the selected aqueous/acetone 50/50 v/v mixture containing the test compounds to provide the equivalent of about 0.0313 to 0.500 kg/ha of active ingredient. The treated containers are placed on greenhouse benches, watered such that the water level is maintained as stated above, and cared for in accordance with conventional greenhouse procedures. Three to four weeks after treatment, the test is terminated and each container is examined and herbicidal effect rated according to the rating system provided in Example 185. The compounds evaluated are reported by compound number given in Example 185.

[3] = test system: Ragweed, Common, Ambrosia artemisifolia; experiment: Postemergence herbicidal evaluation, AMBEL; assay type: in vivo, L.; settings: 0.2500 kg/ha
Summary of the method: (§2)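 Roughly two-week-old seedlings sprayed with compound dispersed in 50/50 acetone/water plus 0.5% TWEEN 20, delivering about 0.0157 to 0.500 kg active per hectare through a nozzle at 40 psi. Kept in greenhouse; visually rated 4–5 weeks after treatment on a 0–9 scale (stand, vigor, malformation, size, chlorosis) versus control, replicate tests averaged.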

[4] = test system: Wheat, Winter, cv Riband, Triticum aestivum; experiment: Preemergence herbicidal evaluation, TRZAWR; assay type: in vivo; settings: 0.2500 kg/ha
Summary of the method: as §1

[5] = test system: ECHORC Watergrass (Calif.); experiment: Postemergence weed control, flooded paddy (Table IV); assay type: in vivo, Echinochloa oryzoides; design: scale not given here
Summary of the method: (§3)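 Herbicidal effect is scored visually on a rating scale three to four weeks after compounds, in aqueous/acetone 50/50 v/v, are added to flood water at roughly 0.0313 to 0.500 kg/ha. Plants: weeds 3 to 5 cm tall, rice at 1.5 to 2.5 leaves.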

Corn, Field, Zea mays [6] = experiment: Postemergence herbicidal evaluation, ZEAMX; assay type: in vivo, L.; settings: 0.2500 kg/ha
Summary of the method: as §2

[7] = test system: ECHORC Watergrass (Calif.); experiment: Preemergence weed control, flooded paddy (Table III); assay type: in vivo, Echinochloa oryzoides; design: scale not given here
Procedure: (§4) Preemergence herbicidal activity under flooded paddy conditions is determined as follows: plant seeds or propagating organs are planted in the top 0.5 cm of silt loam soil in 32 oz. plastic containers with a diameter of 10.5 cm and no drainage holes. Water is added to these containers and maintained at 1.5 to 3 cm above the soil surface for the duration of the experiment. The test compounds are applied as aqueous/acetone mixtures 50/50 v/v pipetted directly into the flood water to give the equivalent of about 0.0313 to 0.500 kg/ha of active ingredient. The treated containers are placed on greenhouse benches and cared for in accordance with conventional greenhouse procedures. Three to four weeks after treatment, the test is terminated and each container is examined and herbicidal effect rated according to the rating system provided in Example 185. The compounds evaluated are reported by compound number given in Example 185.

[8] = test system: Morningglory Spp., Ipomoea Spp.; experiment: Postemergence herbicidal evaluation, IPOSS; assay type: in vivo; settings: 0.2500 kg/ha
Procedure: In the tests, seedling plants are grown in jiffy flats for about two weeks. The test compounds are dispersed in 50/50 acetone/water mixtures containing 0.5% TWEEN®20, a polyoxyethylene sorbitan monolaurate surfactant of Atlas Chemical Industries, in sufficient quantities to provide the equivalent of about 0.0157 kg to 0.500 kg per hectare of active compound when applied to the plants through a spray nozzle operating at 40 psi for a predetermined time. After spraying, the plants are placed on greenhouse benches and are cared for in accordance with conventional greenhouse procedures. From four to five weeks after treatment, the seedling plants are examined and rated according to the rating system set forth below. Where more than one test is involved for a given compound, the data are averaged.
Results of herbicide evaluation are expressed on a rating scale (0-9). The scale is based upon a visual observation of plant stand, vigor, malformation, size, chlorosis and overall plant appearance as compared with a control.

ORYSAT Rice, Tebonnet [9] = experiment: Rice tolerance, flooded paddy (Table IV); assay type: in vivo, Oryza sativa; design: scale not given here; settings: crop tolerance
Summary of the method: as §3

[10] = test system: Rice, Tebonnet, Oryza sativa; experiment: Preemergence herbicidal evaluation, ORYSAT; assay type: in vivo, (L.) Tebonnet; settings: 0.2500 kg/ha
Summary of the method: as §1

CYPIR Rice Flatsedge = experiment: Preemergence weed control, flooded paddy (Table III); assay type: in vivo, Cyperus iria; design: scale not given here
Procedure: as §4

[11] = test system: Sicklepod, Cassia obtusifolia; experiment: Preemergence herbicidal evaluation, CASOB; assay type: in vivo, L.; settings: 0.2500 kg/ha
Summary of the method: as §1

[12] = test system: SAGPY Arrowhead (Pygmaea); experiment: Preemergence weed control, flooded paddy (Table III); assay type: in vivo, Sagittaria pygmaea; design: scale not given here
Procedure: as §4

[13] = test system: Sicklepod, Cassia obtusifolia; experiment: Postemergence herbicidal evaluation, CASOB; assay type: in vivo, L.; settings: 0.2500 kg/ha
Summary of the method: as §2

[14] = test system: Wheat, Winter, cv Riband, Triticum aestivum; experiment: Postemergence herbicidal evaluation, TRZAWR; assay type: in vivo; settings: 0.2500 kg/ha
Summary of the method: as §2

SMILES | herbicide rating (0-9) (Corn, Field, Zea mays [1]) | herbicidal effect rating (ORYSAT Rice, Tebonnet [2]; 0.0313 kg/ha) | herbicidal effect rating (ORYSAT Rice, Tebonnet [2]; 0.0625 kg/ha) | herbicidal effect rating (ORYSAT Rice, Tebonnet [2]; 0.1250 kg/ha) | herbicidal effect rating (ORYSAT Rice, Tebonnet [2]; 0.2500 kg/ha) | herbicidal effect rating (ORYSAT Rice, Tebonnet [2]; 0.5000 kg/ha) | herbicide rating (0-9) [3] | herbicide rating (0-9) [4] | herbicidal effect rating ([5]; 0.1250 kg/ha) | herbicidal effect rating ([5]; 0.2500 kg/ha) | herbicidal effect rating ([5]; 0.5000 kg/ha) | herbicide rating (0-9) (Corn, Field, Zea mays [6]) | herbicidal effect rating ([7]; 0.0313 kg/ha) | herbicidal effect rating ([7]; 0.0625 kg/ha) | herbicidal effect rating ([7]; 0.1250 kg/ha) | herbicidal effect rating ([7]; 0.2500 kg/ha) | herbicidal effect rating ([7]; 0.5000 kg/ha) | herbicide rating (0-9) [8] | herbicidal effect rating (ORYSAT Rice, Tebonnet [9]; 0.1250 kg/ha) | herbicidal effect rating (ORYSAT Rice, Tebonnet [9]; 0.2500 kg/ha) | also measured
COc1cc(C)ccc1-c1nsc2ccc(-n3c(=O)cc(C(F)(F)F)n(C)c3=O)cc12 [Compound 7, 3-[3-(2-Methoxy-p-tolyl)-1,2-benzisothiazol-5-yl]-1-methyl-6-(trifluoromethyl)-2,4(1H,3H)-pyrimidinedione] | 7.0 | 6.0 | 8.0 | 7.0 | 7.0 | 9.0 | 9.0 | 6.0 | 9.0 | 9.0 | 9.0 | 7.0 | 9.0 | 9.0 | 9.0 | 9.0 | 9.0 | 9.0 | 7.0 | 7.0 | herbicidal effect rating (ORYSAT Rice, Tebonnet [9]; 0.5000 kg/ha): 8.0; herbicide rating (0-9) [10]: 8.0; herbicidal effect rating (CYPIR Rice Flatsedge; 0.0313 kg/ha): 9.0; herbicidal effect rating (CYPIR Rice Flatsedge; 0.0625 kg/ha): 9.0; herbicidal effect rating (CYPIR Rice Flatsedge; 0.1250 kg/ha): 9.0; herbicidal effect rating (CYPIR Rice Flatsedge; 0.2500 kg/ha): 9.0; herbicidal effect rating (CYPIR Rice Flatsedge; 0.5000 kg/ha): 9.0; herbicide rating (0-9) [11]: 9.0; herbicidal effect rating ([12]; 0.0313 kg/ha): 6.0; herbicidal effect rating ([12]; 0.0625 kg/ha): 8.0; herbicidal effect rating ([12]; 0.1250 kg/ha): 9.0; herbicidal effect rating ([12]; 0.2500 kg/ha): 9.0; herbicidal effect rating ([12]; 0.5000 kg/ha): 9.0; herbicide rating (0-9) [13]: 9.0; herbicide rating (0-9) [14]: 7.0
COC(=O)COc1cc(C)c(C)cc1-c1nsc2ccc(-n3c(=O)cc(C(F)(F)F)n(C)c3=O)cc12 [Compound 12, Methyl {{6-{5-[3,6-dihydro-3-methyl-4-(trifluoromethyl)-2,6-dioxo-1(2H)-pyrimidinyl]-1,2-benzisothiazol-3-yl}-3,4-xylyl}oxy}acetate] | 7.0 | 4.0 | 7.0 | 7.0 | 8.0 | 9.0 | 9.0 | 5.0 | 6.0 | 9.0 | 9.0 | 9.0 | 9.0 | 9.0 | 9.0 | 9.0 | 9.0 | 9.0 | 7.0 | 7.0 | herbicidal effect rating (ORYSAT Rice, Tebonnet [9]; 0.5000 kg/ha): 7.0; herbicide rating (0-9) [10]: 7.0; herbicidal effect rating (CYPIR Rice Flatsedge; 0.0313 kg/ha): 9.0; herbicidal effect rating (CYPIR Rice Flatsedge; 0.0625 kg/ha): 9.0; herbicidal effect rating (CYPIR Rice Flatsedge; 0.1250 kg/ha): 9.0; herbicidal effect rating (CYPIR Rice Flatsedge; 0.2500 kg/ha): 9.0; herbicidal effect rating (CYPIR Rice Flatsedge; 0.5000 kg/ha): 9.0; herbicide rating (0-9) [11]: 9.0; herbicidal effect rating ([12]; 0.0313 kg/ha): 0.0; herbicidal effect rating ([12]; 0.0625 kg/ha): 2.0; herbicidal effect rating ([12]; 0.1250 kg/ha): 4.0; herbicidal effect rating ([12]; 0.2500 kg/ha): 9.0; herbicidal effect rating ([12]; 0.5000 kg/ha): 9.0; herbicide rating (0-9) [13]: 9.0; herbicide rating (0-9) [14]: 9.0
